Columns and labels:
[1] = test system: SiHa; test: Cell proliferation inhibition, SiHa in serine-replete or -deplete medium; format: cell-based, human; details: ratio of IC50 in serine-replete to serine-deplete medium
[2] = test system: HL-60 shCTRL; test: Cell proliferation inhibition, HL-60 shCTRL in serine-replete or -deplete medium; format: cell-based, human; details: ratio of IC50 in serine-replete to serine-deplete medium
[3] = target: T1, PHGDH (Homo sapiens, UniProt O43175); test: Rapid dilution; format: biochemical; details: 160 μM, 45 min at 37 °C, diluted 10-fold
T1 sequence (O43175 1-533): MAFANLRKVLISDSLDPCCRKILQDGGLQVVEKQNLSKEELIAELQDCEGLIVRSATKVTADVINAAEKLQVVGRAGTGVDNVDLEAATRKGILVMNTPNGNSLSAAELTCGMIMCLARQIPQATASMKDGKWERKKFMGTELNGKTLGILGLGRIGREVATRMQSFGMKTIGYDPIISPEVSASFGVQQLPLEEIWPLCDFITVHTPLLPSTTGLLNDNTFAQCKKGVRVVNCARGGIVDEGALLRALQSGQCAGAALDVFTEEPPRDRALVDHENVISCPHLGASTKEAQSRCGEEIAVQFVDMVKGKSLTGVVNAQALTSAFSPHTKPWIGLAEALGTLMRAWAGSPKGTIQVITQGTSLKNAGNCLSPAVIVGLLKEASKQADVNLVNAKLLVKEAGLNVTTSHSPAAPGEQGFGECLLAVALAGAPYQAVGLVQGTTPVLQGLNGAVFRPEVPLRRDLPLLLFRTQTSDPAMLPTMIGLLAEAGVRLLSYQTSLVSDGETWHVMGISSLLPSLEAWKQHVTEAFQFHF

[4] = target: T1, PHGDH; test: Ki measurement / competition assay by titrating 3-PG or NAD+; format: biochemical
[5] = target: T1, PHGDH; details: coupled-enzyme assay

| SMILES | SiHa IC50+Ser/IC50−Ser [1] | HL-60 shCTRL IC50+Ser/IC50−Ser [2] | recovery of enzymatic activity after dilution [3] | mode of action with respect to both substrates (3-PG and NAD+) [4] | PHGDH inhibition (IC50, μM) [5] |
| --- | --- | --- | --- | --- | --- |
| O=C(Nc1ccccc1[N+](=O)[O-])c1ccc(Cl)cc1 [compound 12] | >1.7 | >1.2 | – | – | – |
| O=C(C(=S)N1CCOCC1)c1ccccc1 [compound 19, 1-Phenyl-2-morpholino-2-thioxoethanone] | – | >5.5 | enzymatic activity is not recovered after dilution | noncompetitive | – |
| O=C(C(=S)N1CCOCC1)c1ccccc1Cl [compound 23, 1-(2-Chlorophenyl)-2-morpholino-2-thioxoethanone] | – | – | – | – | no inhibition |
| O=C(C(=S)N1CCOCC1)c1cccc(Cl)c1 [compound 24, 1-(3-Chlorophenyl)-2-morpholino-2-thioxoethanone] | – | – | – | – | no inhibition |
